Tested on: C57 BL/6 mice, controlled cortical impact (CCI) model
Test: Controlled cortical impact (CCI) model in mice, intracranial pressure (ICP)
Assay type: in vivo
Settings: CCI mice, analogous treatment
Excerpt: The primary objective of this experiment was the characterization of the intracranial pressure (ICP) reduction by VAS3384 in the controlled cortical impact (CCI) model in mice. The secondary objective was characterization of the neuroprotective effect (reduction of the lesion volume) of VAS3384 in the controlled cortical impact model in mice.
• Test compound A • Denomination: VAS 3384 • Active agent: 4-Amino-4-desoxy-7,8-dihydrobiopterin-dihydrochloride, obtained from Schircks Laboratories, Bauma, Switzerland • Detailed composition: VAS 3384 dissolved in sodium phosphate buffer (PBS) pH 7.4 • Formulation method: 15 mg of the test compound (VAS 3384) are dissolved in 500 μl PBS, pH 7.4. The solution is neutralized with 72 μl 1 N NaOH and filled up with 428 μl water (check pH). • Final concentration of active agent: 15 mg/ml • Appearance: yellow, clear solution • Storage (solid test compound): −20° C. • Dose applied: 560 mg/kg or 37.3 ml/kg • Way of administration: intravenous injection/infusion • Negative control • Denomination: sodium phosphate buffer (PBS) • Active agent: none • Detailed composition: Na2HPO4, NaH2PO4, 100 mM pH 7.4 • Formulation method: ready for use • Final concentration of active agent: not applicable • Appearance: colourless, clear solution • Expiration date: 3 months after preparation • Volume applied: 37.3 ml/kg • Way of administration: intravenous injection/infusion Experimental Procedure
The animals (C57 BL/6 mice), under Dormicum/Methidomidin/Fentanyl-narcosis were fixed in a stereo tactical frame and the scalp was opened with a cut along the median. The skull bone
was laid open and disinfected with H2O2. A hole of approx. 1.2 mm diameter was then drilled into the skull (Bregma 0.4-0.4 mm). The ICP-probe was introduced through this hole. The V. jugularis was be laid open and a catheter introduced. This catheter was introduced in the neck subcutaneously and fixed on the cap of the cage with a protective spiral of metal. This setup permitted an infusion in awake animals. The skull was opened above of the right cortex and mechanically traumatized (CCI model). The skullcap was then closed with the removed bone.
Mice 1-9: 10 minutes after the trauma the animals got an intravenous bolus injection of 20 mg/kg VAS 3384 (=1.33 ml/kg) followed by an infusion of 1.5 mg/kg/min (=100 μl/kg/min) VAS 3384 over six hours to maintain the dose. After six hours, after termination of the infusion, and after 24 hours the ICP of the animals was measured. After 24 hours the animals were sacrificed, the brains dissected and the lesion volume determined by Nissl's method.
Mice 10-18: 10 minutes after the trauma the animals received an intravenous bolus injection of 1.33 ml/kg PBS followed by an infusion of 100 μl/kg/min PBS over six hours. After six hours, after the termination of the infusion, and after 24 hours the ICP of the animals was measured.
At the end of the observation period animals were sacrificed by cervical dislocation in deep halothane anaesthesia. The brains were carefully removed, frozen in powdered dry ice, and stored at −20° C. until further use. Ten μm coronal sections were prepared every 500 μm on a cryostat (CryoStar HM 560, Microm, Walldorf, Germany) and stained with cresyl violet. Sections were photographed with a digital camera system. The contusion area, the area of the non-traumatized tissue of the ipsilateral hemisphere, and the area of the contralateral hemisphere were determined on the digitized images with a standard image analysis software (Optimate 6.51, Media Cybernetics, Silver Spring, MD, USA) by an investigator blinded to the treatment of the animals. In order to correct for the swelling of contused tissue, the contusion area was calculated by subtracting the area of the non-traumatized tissue of the ipsilateral hemisphere from the area of the contralateral hemisphere. […]

For `C[C@H](O)[C@H](O)C1CNc2nc(N)nc(N)c2N1` (mixture of isomers) [Ronopterin, 4-Amino-(6R,S)-5,6,7,8-tetrahydro-L-biopterin], the “time ICP remained lowered after the treatment” value was “at least 18 h”.
